{"source": "patent US11766468B2", "about": "“Method of treating prostate cancer with GnRH antagonist” (priority 2012, dated 2023)", "test": "CS21 safety: treatment-emergent adverse events (MedDRA SOC/PT), crude incidence, also by subgroup", "type": "in vivo", "conditions": "for Musculoskeletal and connective tissue disorders, % of patients: pooled degarelix", "experimental": "The safety variables for this study were assessed on the following: the frequency and severity of adverse events (AEs); the presence of clinically significant changes in laboratory parameters (clinical chemistry, hematology and urinalysis); changes in electrocardiograms (ECGs) and vital signs; changes detected by physical examination; and body weight.\nAn AE was therefore any unfavorable or unintended sign (including an abnormal laboratory finding), symptom or disease temporally associated with the use of the product, whether or not related to the IMP.\nAn adverse drug reaction (ADR) was defined as an AE evaluated by the investigator as being probably or possibly related to treatment with the IMP.\nAEs were graded according to the National Cancer Institute (NCI) Common Terminology Criteria for Adverse Events (CTCAE). In accordance with the CTCAE criteria, AEs were rated on a five-point scale corresponding to mild, moderate, severe, life-threatening or disabling and death. For those AEs not described in the CTCAE, a separate five-point rating scale was used for rating of the intensity of AEs as follows below:\nSafety parameters were evaluated for all patients included in the ITT analysis set, comprising all 610 randomized patients who received at least one dose of study medication. All safety tables include four columns: the three treatment groups described separately, and the pooled degarelix group.\nAdverse events were regarded as ‘treatment-emergent’ if they occurred in the time interval from initial dosing to end-of-study. Adverse events were considered ‘pre-treatment’ if they occurred between screening and the initial injections of IMP. As described above, all AEs were classified according to MedDRA (version 10.0) system organ class (SOC), sorted alphabetically, and by preferred term (PT), in decreasing frequency of occurrence. Treatment-emergent AEs were expressed in terms of intensity (using NCI CTCAE) and relationship to study drug.\nUsing the results from the summary of clinical efficacy (SCE) and summary of clinical safety (SCS) findings, different patient subgroups were analyzed. Subgroup distinguishers included race (white, black, and other), age (<65 years, […], and >75 years), weight (<70 kg, ≥70−<90 kg, and ≥90 kg), body mass index (BMI) (≤20, >20 to 30, and >30 kg/m^2)), region (North-America, Western Europe, Central and Eastern Europe and Other), and stage of prostate cancer (e.g., localized, locally advanced, and metastatic).", "key": {"[1]": {"conditions": "degarelix Total (pooled), leuprolide 7.5 mg"}, "[2]": {"conditions": "degarelix Total (pooled), leuprolide 7.5 mg, listed as leuprolide"}}, "note": "Marks after values point to notes of the source that are not given here.", "data": [{"smiles": "CCNC(=O)[C@@H]1CCCN1C(=O)[C@H](CCCNC(=N)N)NC(=O)[C@H](CC(C)C)NC(=O)[C@@H](CC(C)C)NC(=O)[C@H](Cc1ccc(O)cc1)NC(=O)[C@H](CO)NC(=O)[C@H](Cc1c[nH]c2ccccc12)NC(=O)[C@H](Cc1c[nH]cn1)NC(=O)[C@@H]1CCC(=O)N1", "note": "[Leuprolide, leuprolide, reference compound]", "values": [{"measurement": "Musculoskeletal and connective tissue disorders, % of patients", "setting": "Age <65", "result": "(34%)**"}, {"measurement": "Musculoskeletal and connective tissue disorders, % of patients", "setting": "PCA = Localised", "result": "(25%)"}, {"measurement": "Musculoskeletal and connective tissue disorders, % of patients", "setting": "PCA = Locally advanced", "result": "(19%)"}, {"measurement": "Musculoskeletal and connective tissue disorders, % of patients", "setting": "PCA = Metastatic", "result": "(36%)"}, {"measurement": "Musculoskeletal and connective tissue disorders, % of patients", "setting": "Race = White", "result": "(26%)**"}, {"measurement": "Musculoskeletal and connective tissue disorders, % of patients", "setting": "Weight <70 kg", "result": "(36%)*"}, {"measurement": "Musculoskeletal and connective tissue disorders, % of patients", "setting": "Weight >=90 kg", "result": "(32%)*"}, {"measurement": "Deaths (Grade 5), % of patients", "setting": "[1]", "result": 4, "unit": "%"}, {"measurement": "Deaths (Grade 5), E events", "setting": "[1]", "result": 10}, {"measurement": "Deaths (Grade 5), N patients", "setting": "[1]", "result": 9}, {"measurement": "Infections & infestations, % of patients", "setting": "[1]", "result": "(24%)"}, {"measurement": "Musculoskeletal & connective tissue disorders, % of patients", "setting": "[1]", "result": "(26%)"}, {"measurement": "Skin & subcutaneous tissue disorders, % of patients", "setting": "[1]", "result": "( 5%)"}, {"measurement": "Urinary tract infection, % of patients", "setting": "[1]", "result": "( 9%)"}, {"measurement": "Infections & infestations, % of patients", "setting": "[2]", "result": 24, "unit": "%"}, {"measurement": "Musculoskeletal & connective tissue disorders, % of patients", "setting": "[2]", "result": 26, "unit": "%"}, {"measurement": "Urinary tract infection, % of patients", "setting": "[2]", "result": 9, "unit": "%"}, {"measurement": "Atrioventricular block first degree, % of patients", "setting": "in vivo", "result": "(6%)*"}, {"measurement": "Bronchitis, % of patients", "setting": "in vivo", "result": "( 8%)*"}, {"measurement": "Chest pain, % of patients", "setting": "in vivo", "result": "( 3%)*"}, {"measurement": "Cystitis noninfective, % of patients", "setting": "in vivo", "result": "(2%)*"}, {"measurement": "Deep vein thrombosis, % of patients", "setting": "in vivo", "result": "(2%)*"}, {"measurement": "Depression, % of patients", "setting": "in vivo", "result": "(6%)*"}, {"measurement": "Diarrhoea, % of patients", "setting": "in vivo", "result": "(8%)*"}, {"measurement": "Dyspnoea, % of patients", "setting": "in vivo", "result": "(6%)*"}, {"measurement": "Excoriation, % of patients", "setting": "in vivo", "result": "( 4%)"}, {"measurement": "Fall, % of patients", "setting": "in vivo", "result": "( 2%)"}, {"measurement": "Gynaecomastia, % of patients", "setting": "in vivo", "result": "(3%)"}, {"measurement": "Injury, poisoning and procedural complications, % of patients", "setting": "in vivo", "result": "(12%)**"}, {"measurement": "Investigations, % of patients", "setting": "in vivo", "result": "(30%)"}, {"measurement": "Libido decreased, % of patients", "setting": "in vivo", "result": "(3%)"}, {"measurement": "Musculoskeletal stiffness, % of patients", "setting": "in vivo", "result": "(2%)*"}, {"measurement": "Myocardial ischaemia, % of patients", "setting": "in vivo", "result": "( 3%)*"}, {"measurement": "Nervous system disorders, % of patients", "setting": "in vivo", "result": "(10%)"}, {"measurement": "Orthostatic hypotension, % of patients", "setting": "in vivo", "result": "(2%)*"}, {"measurement": "Pain in extremity, % of patients", "setting": "in vivo", "result": "( 9%)"}, {"measurement": "Pelvic pain, % of patients", "setting": "in vivo", "result": "(8%)*"}, {"measurement": "Psychiatric disorders, % of patients", "setting": "in vivo", "result": "(14%)"}, {"measurement": "Respiratory, thoracic and mediastinal disorders, % of patients", "setting": "in vivo", "result": "(10%)"}, {"measurement": "Syncope, % of patients", "setting": "in vivo", "result": "(2%)*"}, {"measurement": "Vascular disorders, % of patients", "setting": "in vivo", "result": "(30%)"}]}]}
